From PubChem BioAssay AID330 (DTP/NCI, 2004)
Values joined by “and” are separate entries in the source; they are usually repeats but may differ in a detail not shown here. Equal values may be shown once. Inconclusive results and toxic doses are left out. The calls were made as follows: active = survival T/C of 150% or more; inactive = T/C below 125% in these data.

Tested on: P388 leukemia ip, CD2F1 mice, survival T/C
Assay: NCI In Vivo Anticancer Drug Screen. Data for tumor model P388 Leukemia (intraperitoneal) in CD2F1 (CDF1) mice
Settings: endpoint: median survival time, higher = longer survival
Summary of the method: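 Mice carrying the transplanted tumor received test compound or vehicle. Survival was recorded in each group, and the value is the treated-group measurement divided by that of the vehicle-treated control group.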

[1] = dose: 50.0 mg/kg/injection, schedule: Q01DX009 (ip), vehicle: saline with Tween-80
[2] = dose: 100.0 mg/kg/injection, schedule: Q01DX009 (ip), vehicle: saline with Tween-80
[3] = dose: 200.0 mg/kg/injection, schedule: Q01DX009 (ip), vehicle: saline with Tween-80
[4] = dose: 100.0 mg/kg/injection, schedule: Q04DX002 (ip), vehicle: saline with Tween-80
[5] = dose: 200.0 mg/kg/injection, schedule: Q04DX002 (ip), vehicle: saline with Tween-80
[6] = dose: 12.5 mg/kg/injection, schedule: Q01DX009 (ip), vehicle: saline
[7] = dose: 25.0 mg/kg/injection, schedule: Q01DX009 (ip), vehicle: saline
[8] = dose: 60.0 mg/kg/injection, schedule: Q01DX005 (ip), vehicle: saline with Tween-80
[9] = dose: 120.0 mg/kg/injection, schedule: Q01DX005 (ip), vehicle: saline with Tween-80
[10] = dose: 240.0 mg/kg/injection, schedule: Q01DX005 (ip), vehicle: saline with Tween-80
[11] = dose: 100.0 mg/kg/injection, schedule: Q04DX003 (ip), vehicle: Klucel (hydroxypropylcellulose) (HPC)

Measured: T/C

CC(=O)NC(C=O)OCC=O (centres undefined)
inactive: dose: 44.0 mg/kg/injection, schedule: Q01DX005 (ip), vehicle: water 120 % of control | dose: 66.0 mg/kg/injection, schedule: Q01DX005 (ip), vehicle: water 121 % of control | dose: 150.0 mg/kg/injection, schedule: Q01DX005 (ip), vehicle: water 110 % of control

CC(C)(C)N=C(CCC(C#N)(C#N)CCC(=NC(C)(C)C)Nc1ccccc1C#N)Nc1ccccc1C#N
inactive: [1] 95 % of control | [2] 92 % of control | [3] 101 % of control

COc1ccc2c([O-])c3[n+](c(OC)c2c1OC)CCc1cc2c(cc1-3)OCO2
inactive: dose: 50.0 mg/kg/injection, schedule: Q04DX002 (ip), vehicle: saline with Tween-80 94 % of control | [4] 104 % of control | [5] 103 % of control

S=c1cc[nH]c2ccccc12
inactive: dose: 6.25 mg/kg/injection, schedule: Q01DX009 (ip), vehicle: other 104 % of control | dose: 12.5 mg/kg/injection, schedule: Q01DX009 (ip), vehicle: other 104 % of control | dose: 25.0 mg/kg/injection, schedule: Q01DX009 (ip), vehicle: other 96 % of control | dose: 50.0 mg/kg/injection, schedule: Q01DX009 (ip), vehicle: other 112 % of control | dose: 100.0 mg/kg/injection, schedule: Q01DX009 (ip), vehicle: other 110 % of control

C=C1CCCC2(C)C(OC(C)=O)C=C3C(C)(CCC3(O)C(C)C)CC12O (centres undefined)
inactive: dose: 0.5 mg/kg/injection, schedule: Q01DX009 (ip), vehicle: saline + alcohol 110 % of control | dose: 1.0 mg/kg/injection, schedule: Q01DX009 (ip), vehicle: saline + alcohol 108 % of control | dose: 2.0 mg/kg/injection, schedule: Q01DX009 (ip), vehicle: saline + alcohol 102 % of control

CC(C)(C)CC(C)(C)c1ccc(O)c(O)c1
inactive: dose: 25.0 mg/kg/injection, schedule: Q01DX005 (ip), vehicle: saline 100 % of control | dose: 50.0 mg/kg/injection, schedule: Q01DX005 (ip), vehicle: saline 101 % of control | dose: 100.0 mg/kg/injection, schedule: Q01DX005 (ip), vehicle: saline 106 % of control | dose: 100.0 mg/kg/injection, schedule: Q01DX009 (ip), vehicle: saline 106 % of control and 94 % of control | dose: 200.0 mg/kg/injection, schedule: Q01DX005 (ip), vehicle: saline 110 % of control | dose: 400.0 mg/kg/injection, schedule: Q01DX009 (ip), vehicle: saline 94 % of control

C1CNC(CCNCCSCCNCCC2=NCCN2)=N1
inactive: [6] 100 % of control | [7] 96 % of control | dose: 50.0 mg/kg/injection, schedule: Q01DX009 (ip), vehicle: saline 100 % of control

O=[N+]([O-])c1ccc(Cl)c(S(=O)(=O)Cl)c1
inactive: dose: 50.0 mg/kg/injection, schedule: Q01DX005 (ip), vehicle: saline with Tween-80 97 % of control | dose: 100.0 mg/kg/injection, schedule: Q01DX005 (ip), vehicle: saline with Tween-80 88 % of control | dose: 200.0 mg/kg/injection, schedule: Q01DX005 (ip), vehicle: saline with Tween-80 92 % of control

CCOC(=O)N1C=CN(C(=O)OCC)C1c1nccn1C(=O)OCC
inactive: [1] 100 % of control | [2] 96 % of control | [3] 105 % of control

C=C(C)c1c(C)nc2c(N)nc(N)[n+]([O-])c2[n+]1[O-]
inactive: dose: 37.5 mg/kg/injection, schedule: Q01DX009 (ip), vehicle: saline 108 % of control | dose: 75.0 mg/kg/injection, schedule: Q01DX009 (ip), vehicle: saline 118 % of control | dose: 150.0 mg/kg/injection, schedule: Q01DX009 (ip), vehicle: saline 101 % of control

CCCCC(=O)Oc1cc(=O)n(C)c2cc(C)n(C)c(=O)c12
inactive: dose: 60.0 mg/kg/injection, schedule: Q01DX005 (ip), vehicle: Klucel (hydroxypropylcellulose) (HPC) 98 % of control | dose: 120.0 mg/kg/injection, schedule: Q01DX005 (ip), vehicle: Klucel (hydroxypropylcellulose) (HPC) 103 % of control | dose: 240.0 mg/kg/injection, schedule: Q01DX005 (ip), vehicle: Klucel (hydroxypropylcellulose) (HPC) 106 % of control

Nc1ncnc(N)c1NC(=O)c1cc(Cl)c(OCc2ccccc2)c(Cl)c1
inactive: [8] 101 % of control | [9] 95 % of control | [10] 94 % of control

COCC12CCC(OC)C34C5CC6(O)C(OC)C=C(C5C6OC(=O)c5ccccc5)C(C(OC)C13)C4N(C)C2 (centres undefined)
inactive: dose: 25.0 mg/kg/injection, schedule: Q01DX009 (ip), vehicle: Klucel (hydroxypropylcellulose) (HPC) 100 % of control | dose: 50.0 mg/kg/injection, schedule: Q01DX009 (ip), vehicle: Klucel (hydroxypropylcellulose) (HPC) 95 % of control | dose: 100.0 mg/kg/injection, schedule: Q01DX009 (ip), vehicle: Klucel (hydroxypropylcellulose) (HPC) 100 % of control

COC(=O)C1=COC(C)[C@H]2CN3CCc4c([nH]c5cc(OC)ccc45)C3CC12 (some centres undefined)
inactive: dose: 15.0 mg/kg/injection, schedule: Q01DX005 (ip), vehicle: saline with Tween-80 92 % of control | dose: 30.0 mg/kg/injection, schedule: Q01DX005 (ip), vehicle: saline with Tween-80 91 % of control | [8] 88 % of control

CCCCNC(=O)NS(=O)(=O)c1ccc(N)cc1
inactive: [1] 100 % of control | [2] 105 % of control | [3] 102 % of control

CCc1cc(C)cc(NC(=O)OC2CCCCC2C)c1 (centres undefined)
inactive: [8] 102 % of control | [9] 112 % of control | [10] 111 % of control

CCB1OCC(C2OC(=O)C3OB(CC)OC32)O1 (centres undefined)
inactive: dose: 50.0 mg/kg/injection, schedule: Q01DX005 (ip), vehicle: saline + Tween-80 + alcohol 101 % of control | dose: 100.0 mg/kg/injection, schedule: Q01DX005 (ip), vehicle: saline + Tween-80 + alcohol 101 % of control | dose: 200.0 mg/kg/injection, schedule: Q01DX005 (ip), vehicle: saline + Tween-80 + alcohol 95 % of control

Cc1ccc(N2CCN(CC(O)COc3cc4ccccc4c4c3CCCC4)CC2)cc1C (centres undefined)
inactive: [11] 95 % of control | dose: 200.0 mg/kg/injection, schedule: Q04DX003 (ip), vehicle: Klucel (hydroxypropylcellulose) (HPC) 104 % of control | dose: 400.0 mg/kg/injection, schedule: Q04DX003 (ip), vehicle: Klucel (hydroxypropylcellulose) (HPC) 108 % of control

CSC(=S)n1nc(-c2ccccc2)c(N=Nc2cccc(C)c2C)c1-c1ccccc1
inactive: [4] 90 % of control | [5] 89 % of control | dose: 400.0 mg/kg/injection, schedule: Q04DX002 (ip), vehicle: saline with Tween-80 102 % of control

CCOC(=O)c1c(NC(=S)NC)sc(C)c1C
inactive: [1] 106 % of control | [2] 89 % of control | [3] 106 % of control

C[N+]12CN3CN(CP(C3)C1)C2
inactive: dose: 6.25 mg/kg/injection, schedule: Q01DX009 (ip), vehicle: saline 99 % of control | [6] 100 % of control | [7] 101 % of control

O=C(CC(O)c1ccccc1)Sc1ccccc1 (centres undefined)
inactive: dose: 25.0 mg/kg/injection, schedule: Q04DX003 (ip), vehicle: Klucel (hydroxypropylcellulose) (HPC) 100 % of control | dose: 50.0 mg/kg/injection, schedule: Q04DX003 (ip), vehicle: Klucel (hydroxypropylcellulose) (HPC) 100 % of control | [11] 95 % of control

O/N=C(\CNC/C(=N\O)NO)NO
inactive: dose: 50.0 mg/kg/injection, schedule: Q01DX005 (ip), vehicle: Klucel (hydroxypropylcellulose) (HPC) 90 % of control | dose: 100.0 mg/kg/injection, schedule: Q01DX005 (ip), vehicle: Klucel (hydroxypropylcellulose) (HPC) 97 % of control | dose: 200.0 mg/kg/injection, schedule: Q01DX005 (ip), vehicle: Klucel (hydroxypropylcellulose) (HPC) 93 % of control
